Results reported in publication PMC10216551 (2023).

Columns and labels:
[1] = system: FAM-H1-8 (DNA, aptamer) GACGACGTAGCGGCGGTGTGGGCATTTTGGGCTAAAGTCGTC; assay: fluorescence, quencher strand displacement; settings: 500 mM NaCl, 10 mM MgCl2, 50 mM HEPES pH 7.6, room temperature
[2] = system: H1 (DNA, aptamer) GACGACGTAGCGGCGGTGTGGGCATTTTGGGCTAAAGTCGTCCCGATGCT; assay: ITC; settings: 500 mM NaCl, 10 mM MgCl2, 50 mM HEPES pH 7.6, 25 °C
[3] = system: H7 (DNA, aptamer) GACGACGTCCCGATGCTGCAATCGTAAACCCGTTATGTCGTCCCGATGCT; assay: ITC; settings: 500 mM NaCl, 10 mM MgCl2; 50 mM HEPES pH 7.6, 25 °C; 10 μM aptamer, 0.33 mM 5-HMF in syringe
[4] = system: H1-8 (DNA, aptamer) GACGACGTAGCGGCGGTGTGGGCATTTTGGGCTAAAGTCGTC; assay: ITC; settings: 500 mM NaCl, 10 mM MgCl2; 50 mM HEPES pH 7.6, 25 °C; one-site fit
[5] = system: H10 (DNA, aptamer) GACGACTAGAGGGGGCCCGTTATTCGGTGATGTCTTGTCGTCCCGATGCT; assay: ITC; settings: 500 mM NaCl, 10 mM MgCl2; 50 mM HEPES pH 7.6, 25 °C; 10 μM aptamer, 0.33 mM 5-HMF in syringe
[6] = system: H1-12 (DNA, aptamer) CGACGTAGCGGCGGTGTGGGCATTTTGGGCTAAAGTCG; assay: ITC; settings: 500 mM NaCl, 10 mM MgCl2; 50 mM HEPES pH 7.6, 25 °C; one-site fit
[7] = system: H1-21 (DNA, aptamer) GTAGCGGCGGTGTGGGCATTTTGGGCTAA; assay: ITC; settings: 500 mM NaCl, 10 mM MgCl2; 50 mM HEPES pH 7.6, 25 °C; one-site fit
[8] = system: H3 (DNA, aptamer) GACGACTAAGCGGCGGTGTGGGCATTTTGGGCTTTTGTCGTCCCGATGCT; assay: ITC; settings: 500 mM NaCl, 10 mM MgCl2, 50 mM HEPES pH 7.6, 25 °C
[9] = system: H2 (DNA, aptamer) GACGACTGTGGGCTGCCAAGGGCGCGTAGGGCGAAAGTCGTCCCGATGCT; assay: ITC; settings: 500 mM NaCl, 10 mM MgCl2, 50 mM HEPES pH 7.6, 25 °C
[10] = system: H1-14 (DNA, aptamer) GACGTAGCGGCGGTGTGGGCATTTTGGGCTAAAGTC; assay: ITC; settings: 500 mM NaCl, 10 mM MgCl2; 50 mM HEPES pH 7.6, 25 °C; one-site fit

Kd ([1]; apparent, BHQ1-cDNA displaced (1:2), 5-HMF 0–2000 μM) [µM]	Kd ([2]; one-site fit) [µM]	binding [3]	Kd [4] [µM]	binding [5]	Kd [6] [µM]	Kd [7] [µM]	Kd ([8]; one-site fit) [µM]	Kd ([9]; one-site fit) [µM]	Kd [10] [µM]	binding ([1]; BHQ1-cDNA as displaced strand, up to 100 μM FF)	binding ([2]; FF concentration not stated)	binding ([8]; FF concentration not stated)	binding ([9]; FF concentration not stated)	SMILES
64	2.46 ± 1.90	no	1.79 ± 0.60	no	1.22 ± 0.90	4.7 ± 0.6	12.40 ± 2.70	8.76 ± 2.50	6.50 ± 1.80					O=Cc1ccc(CO)o1
										no	no	no	no	O=Cc1ccco1
